This note sets out measurements from patent US6660752B2, “2,6-Substituted chroman derivatives useful as beta-3 adrenoreceptor agonists” (Bayer Pharmaceuticals Corporation, priority 2001, dated 2003).

This assay deals with T1, human beta-3-adrenergic receptor (Homo sapiens, UniProt P13945).
T1 construct: stably express full-length human beta-3-adrenergic receptor; expressed in transfected cells; host or cells: Chinese hamster ovary (CHO) cells
Put plainly: cAMP production (beta-3 agonist activity) in CHO cells stably expressing human beta-3-adrenergic receptor, cAMP SPA. In kind it is cell-based. Particulars: CHO cells expressing full-length human beta-3-adrenergic receptor, 30 min incubation, 10 μM to 3 nM, read-out: Beta-3 Agonistic Activity: Compounds with EC50 values ≦1 μM. Put shortly: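 CHO cells stably expressing full-length receptor treated 30 min at 37° C with compounds (10 μM to 3 nM, 3-fold dilutions) in KRP buffer pH 7.4 with […] IBMX and 1% DMSO. Lysed cells assayed for cAMP by SPA; EC50 derived from cAMP concentration-response curves.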

T1 sequence (P13945 whole entry): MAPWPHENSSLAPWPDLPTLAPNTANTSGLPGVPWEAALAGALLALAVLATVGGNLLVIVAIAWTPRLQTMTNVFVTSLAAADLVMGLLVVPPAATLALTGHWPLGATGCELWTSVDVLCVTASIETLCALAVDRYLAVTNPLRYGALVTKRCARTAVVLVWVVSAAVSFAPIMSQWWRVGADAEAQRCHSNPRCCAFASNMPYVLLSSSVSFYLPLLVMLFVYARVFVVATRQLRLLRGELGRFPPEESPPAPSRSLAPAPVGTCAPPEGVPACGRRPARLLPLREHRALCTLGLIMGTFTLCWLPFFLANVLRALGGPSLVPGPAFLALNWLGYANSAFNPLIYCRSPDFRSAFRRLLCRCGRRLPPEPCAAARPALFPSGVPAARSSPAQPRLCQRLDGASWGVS

Broadly, the EC50 is the concentration needed to bring the measured effect to its halfway point. As to `COc1ccc(C(=O)NS(=O)(=O)c2cccc(-c3ccc4c(c3)CCC(CNC[C@H](O)c3cccnc3)O4)c2)cc1` (some centres unmarked) [Example 303], the EC50 is not above 1000 nM.

For `Cc1cccc(C(=O)NS(=O)(=O)c2cccc(-c3ccc4c(c3)CC[C@H](CNC[C@H](O)c3cccnc3)O4)c2)c1` [Example 297], the EC50 was not above 1000 nM.
